These results are taken from US20190166843A1, “Pesticidal Active Mixtures Comprising Isoxazoline Compounds I” (BASF SE, priority 2008, published 2019).

Test [1] deals with Green Peach Aphid (Myzus persicae). Description: Test B.1 Control of green peach aphid through systemic means, artificial diet under membrane, 96-well plates. Type of test: in vivo. The note with it: 3 days. An excerpt: (§1) Synergism can be described as an interaction where the combined effect of two or more compounds is greater than the sum of the individual effects of each of the compounds. The presence of a synergistic effect in terms of percent control, between two mixing partners (X and Y) can be calculated using the Colby equation (Colby, S. R., 1967, Calculating Synergistic and Antagonistic Responses in Herbicide Combinations, Weeds, 15, 20-22):
(§2) When the observed combined control effect is greater than the expected combined control effect (E), then the combined effect is synergistic.
For evaluating control of green peach aphid (Myzus persicae) through systemic means the test unit consisted of 96-well-microtiter plates containing liquid artificial diet under an artificial membrane.
The compounds or mixtures were formulated using a solution containing 75 wt % water and 25 wt % DMSO. Different concentrations of formulated compounds or mixtures were pipetted into the aphid diet, using a custom built pipetter, at two replications. For experimental mixtures in these tests identical volumes of both mixing partners at the desired concentrations respectively, were mixed together.
After application, 5-8 adult aphids were placed on the artificial membrane inside the microtiter plate wells. The aphids were then allowed to suck on the treated aphid diet and incubated at 23±1° C., 50+5% RH for 3 days. Aphid mortality and fecundity was then visually assessed.

The test system of test [2] is Boll Weevil (Anthonomus grandis). Nature of the test: Test B.2 Control of boll weevil, insect diet with eggs, 24-well plates. It is filed as in vivo. The note with it: 5 days.
Text: as §1, §2
For evaluating control of boll weevil (Anthonomus grandis) the test unit consisted of 24-well-microtiter plates containing an insect diet and 20-30 A. grandis eggs. The compounds or mixtures were formulated using a solution containing 75 wt % water and 25 wt % DMSO. Different concentrations of formulated compounds or mixtures were sprayed onto the insect diet at 20 μl, using a custom built micro atomizer, at two replications.
For experimental mixtures in these tests identical volumes of both mixing partners at the desired concentrations respectively, were mixed together.
After application, microtiter plates were incubated at 23±1° C., 50±5% RH for 5 days. Egg and larval mortality was then visually assessed.

The mark [3] stands for this setting: compound II alone at 0.4 ppm (0.4 + 0).
Where [4] appears, read: C.I.240 alone at 0.08 ppm (0 + 0.08).

Turning to `O=[N+]([O-])NC1=NCCN1Cc1ccc(Cl)nc1` [Imidacloprid, imidacloprid], the “Average Control %” value in test [1] (setting [3]) came out at 0%.
On to `Cc1cc(C2=NOC(c3cc(Cl)cc(Cl)c3)(C(F)(F)F)C2)ccc1C(=O)NCC(=O)NCC(F)(F)F` (stereo not drawn) [C.I.240], for which the “Average Control %” value in test [1] (setting [4]) is on record as 0%; in test [1] (C.I.240 alone at 2 ppm (0 + 2)) it was 0%; in test [2] (setting [4]), 0%; in test [2] (C.I.240 alone at 0.4 ppm (0 + 0.4)), 50%.
For `CN1COCN(Cc2cnc(Cl)s2)/C1=N\[N+](=O)[O-]` [Thiamethoxam, thiamethoxam], the “Average Control %” value in test [1] (setting [3]) was determined as 25%.
On to `CC1(C)C(C=C(Cl)Cl)C1C(=O)OC(C#N)c1cccc(Oc2ccccc2)c1` (stereo not drawn) [Alpha-Cypermethrin, alpha-cypermethrin], for which, in test [2] (compound II alone at 0.08 ppm (0.08 + 0)), the “Average Control %” value stood at 0%.
Turning to abamectin, the “Average Control %” value in test [2] (compound II alone at 0.016 ppm (0.016 + 0)) came out at 50%.
`N#CCNC(=O)c1cnccc1C(F)(F)F` [Flonicamid, flonicamid]: the “Average Control %” value in test [2] (compound II alone at 4 ppm (4 + 0)) was 0%.
